Measured values as given in PubChem BioAssay (NCI).
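Values below derive from 48-hour exposures of cells grown in 96-well plates, with endpoints linearly interpolated between the two concentrations bracketing the appropriate inhibition level. GI50 marks 50% less growth. TGI is the concentration that stops growth completely.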

Experiments:
Test in all cases: NCI-60 cell line screen, 48 h
RPMI-8226 leukemia = tested on: RPMI-8226 leukemia
COLO 205 colon = tested on: COLO 205 colon
OVCAR-4 ovarian = tested on: OVCAR-4 ovarian
IGROV1 ovarian = tested on: IGROV1 ovarian
DU-145 prostate = tested on: DU-145 prostate
HCT-116 colon = tested on: HCT-116 colon
OVCAR-8 ovarian = tested on: OVCAR-8 ovarian
A498 renal = tested on: A498 renal
PC-3 prostate = tested on: PC-3 prostate
SK-OV-3 ovarian = tested on: SK-OV-3 ovarian
ACHN renal = tested on: ACHN renal
MOLT-4 leukemia = tested on: MOLT-4 leukemia
MALME-3M melanoma = tested on: MALME-3M melanoma
SR leukemia = tested on: SR leukemia
UACC-62 melanoma = tested on: UACC-62 melanoma
HCC-2998 colon = tested on: HCC-2998 colon
HT29 colon = tested on: HT29 colon
MCF7 breast = tested on: MCF7 breast
SNB-19 CNS = tested on: SNB-19 CNS
SN12C renal = tested on: SN12C renal
SK-MEL-28 melanoma = tested on: SK-MEL-28 melanoma
SF-539 CNS = tested on: SF-539 CNS
K-562 leukemia = tested on: K-562 leukemia
SF-268 CNS = tested on: SF-268 CNS
SK-MEL-2 melanoma = tested on: SK-MEL-2 melanoma
786-0 renal = tested on: 786-0 renal
NCI-H522 lung = tested on: NCI-H522 lung
KM12 colon = tested on: KM12 colon
HCT-15 colon = tested on: HCT-15 colon
MDA-MB-435 = tested on: MDA-MB-435
RXF 393 renal = tested on: RXF 393 renal
LOX IMVI melanoma = tested on: LOX IMVI melanoma
NCI-H460 lung = tested on: NCI-H460 lung
HS 578T breast = tested on: HS 578T breast
MDA-MB-231 breast = tested on: MDA-MB-231 breast
A549 NSCLC = tested on: A549 NSCLC
OVCAR-5 ovarian = tested on: OVCAR-5 ovarian
CAKI-1 renal = tested on: CAKI-1 renal
SNB-75 CNS = tested on: SNB-75 CNS
T-47D breast = tested on: T-47D breast
UACC-257 melanoma = tested on: UACC-257 melanoma
UO-31 renal = tested on: UO-31 renal
U251 CNS = tested on: U251 CNS
BT-549 breast = tested on: BT-549 breast
NCI-H23 lung = tested on: NCI-H23 lung
SF-295 CNS = tested on: SF-295 CNS
NCI/ADR-RES ovarian = tested on: NCI/ADR-RES ovarian
CCRF-CEM leukemia = tested on: CCRF-CEM leukemia
OVCAR-3 ovarian = tested on: OVCAR-3 ovarian
SW-620 colon = tested on: SW-620 colon
HOP-62 NSCLC = tested on: HOP-62 NSCLC
SK-MEL-5 melanoma = tested on: SK-MEL-5 melanoma
HOP-92 NSCLC = tested on: HOP-92 NSCLC
TK-10 renal = tested on: TK-10 renal
NCI-H226 lung = tested on: NCI-H226 lung
M14 melanoma = tested on: M14 melanoma

Structure (SMILES): Cc1ccc(C(=O)Nc2ccc(Oc3cc4cnn(C)c4cc3-c3cn[nH]c3)c(F)c2)c(=O)n1-c1ccc(F)cc1
- GI50 (RPMI-8226 leukemia): > 48 µM
- TGI (RPMI-8226 leukemia): > 100 µM
- GI50 (COLO 205 colon): 5.36 µM
- TGI (COLO 205 colon): > 100 µM
- GI50 (OVCAR-4 ovarian): > 100 µM
- TGI (OVCAR-4 ovarian): > 100 µM
- GI50 (IGROV1 ovarian): > 100 µM
- TGI (IGROV1 ovarian): > 100 µM
- GI50 (DU-145 prostate): > 50 µM
- TGI (DU-145 prostate): > 100 µM
- GI50 (HCT-116 colon): 6.31 µM
- TGI (HCT-116 colon): > 100 µM
- GI50 (OVCAR-8 ovarian): 48.8 µM
- TGI (OVCAR-8 ovarian): > 100 µM
- GI50 (A498 renal): 0.404 µM
- TGI (A498 renal): > 100 µM
- GI50 (PC-3 prostate): 16.3 µM
- TGI (PC-3 prostate): > 100 µM
- GI50 (SK-OV-3 ovarian): > 100 µM
- TGI (SK-OV-3 ovarian): > 100 µM
- GI50 (ACHN renal): 2.9 µM
- TGI (ACHN renal): > 100 µM
- GI50 (MOLT-4 leukemia): > 100 µM
- TGI (MOLT-4 leukemia): > 100 µM
- GI50 (MALME-3M melanoma): 3.35 µM
- TGI (MALME-3M melanoma): > 100 µM
- GI50 (SR leukemia): > 38.8 µM
- TGI (SR leukemia): > 100 µM
- GI50 (UACC-62 melanoma): 2.08 µM
- TGI (UACC-62 melanoma): > 100 µM
- GI50 (HCC-2998 colon): > 100 µM
- TGI (HCC-2998 colon): > 100 µM
- GI50 (HT29 colon): 3.54 µM
- TGI (HT29 colon): > 100 µM
- GI50 (MCF7 breast): 3.2 µM
- TGI (MCF7 breast): > 100 µM
- GI50 (SNB-19 CNS): > 100 µM
- TGI (SNB-19 CNS): > 100 µM
- GI50 (SN12C renal): 3.08 µM
- TGI (SN12C renal): > 100 µM
- GI50 (SK-MEL-28 melanoma): 3.54 µM
- TGI (SK-MEL-28 melanoma): > 100 µM
- GI50 (SF-539 CNS): 1.37 µM
- TGI (SF-539 CNS): > 100 µM
- GI50 (K-562 leukemia): 5.75 µM
- TGI (K-562 leukemia): > 100 µM
- GI50 (SF-268 CNS): 7.21 µM
- TGI (SF-268 CNS): > 100 µM
- GI50 (SK-MEL-2 melanoma): 18.1 µM
- TGI (SK-MEL-2 melanoma): > 100 µM
- GI50 (786-0 renal): > 100 µM
- TGI (786-0 renal): > 100 µM
- GI50 (NCI-H522 lung): 32 µM
- TGI (NCI-H522 lung): > 100 µM
- GI50 (KM12 colon): 0.0304 µM
- TGI (KM12 colon): > 100 µM
- GI50 (HCT-15 colon): 6.1 µM
- TGI (HCT-15 colon): > 100 µM
- GI50 (MDA-MB-435): 3.23 µM
- TGI (MDA-MB-435): > 100 µM
- GI50 (RXF 393 renal): 2.23 µM
- TGI (RXF 393 renal): > 100 µM
- GI50 (LOX IMVI melanoma): 2.46 µM
- TGI (LOX IMVI melanoma): > 100 µM
- GI50 (NCI-H460 lung): 8.12 µM
- TGI (NCI-H460 lung): > 100 µM
- GI50 (HS 578T breast): 7.35 µM
- TGI (HS 578T breast): > 100 µM
- GI50 (MDA-MB-231 breast): 10.2 µM
- TGI (MDA-MB-231 breast): > 78.1 µM
- GI50 (A549 NSCLC): 7.6 µM
- TGI (A549 NSCLC): > 100 µM
- GI50 (OVCAR-5 ovarian): 10.9 µM
- TGI (OVCAR-5 ovarian): > 100 µM
- GI50 (CAKI-1 renal): 3.25 µM
- TGI (CAKI-1 renal): > 100 µM
- GI50 (SNB-75 CNS): 5.61 µM
- TGI (SNB-75 CNS): > 100 µM
- GI50 (T-47D breast): 7.28 µM
- TGI (T-47D breast): > 78.8 µM
- GI50 (UACC-257 melanoma): 6.8 µM
- TGI (UACC-257 melanoma): > 100 µM
- GI50 (UO-31 renal): > 100 µM
- TGI (UO-31 renal): > 100 µM
- GI50 (U251 CNS): 32.9 µM
- TGI (U251 CNS): > 100 µM
- GI50 (BT-549 breast): 7.05 µM
- TGI (BT-549 breast): > 100 µM
- GI50 (NCI-H23 lung): 8.97 µM
- TGI (NCI-H23 lung): > 100 µM
- GI50 (SF-295 CNS): 0.0856 µM
- TGI (SF-295 CNS): > 100 µM
- GI50 (NCI/ADR-RES ovarian): > 94.1 µM
- TGI (NCI/ADR-RES ovarian): > 100 µM
- GI50 (CCRF-CEM leukemia): > 100 µM
- TGI (CCRF-CEM leukemia): > 100 µM
- GI50 (OVCAR-3 ovarian): > 100 µM
- TGI (OVCAR-3 ovarian): > 100 µM
- GI50 (SW-620 colon): > 88.9 µM
- TGI (SW-620 colon): > 100 µM
- GI50 (HOP-62 NSCLC): > 37.9 µM
- TGI (HOP-62 NSCLC): > 100 µM
- GI50 (SK-MEL-5 melanoma): 5.59 µM
- TGI (SK-MEL-5 melanoma): > 100 µM
- GI50 (HOP-92 NSCLC): 2.34 µM
- TGI (HOP-92 NSCLC): > 100 µM
- GI50 (TK-10 renal): 1.95 µM
- TGI (TK-10 renal): 35.1 µM
- GI50 (NCI-H226 lung): 2.16 µM
- TGI (NCI-H226 lung): > 100 µM
- GI50 (M14 melanoma): 2.96 µM
- TGI (M14 melanoma): > 100 µM
